Measurements published in patent US10538681B2, “Aqueous ink for ink jet recording” (Seiko Epson Corporation, priority 2017, dated 2020).

experiment: water-octanol distribution coefficient (log P value); type: physicochemical; details: octanol/water; value defined by OECD Test Guideline 107
Source text: The higher the log P value, the higher the hydrophobicity, and the lower the log P value, the higher the hydrophilicity.

Row | logP | SMILES
1 | 0.64 | CC(C)CCOCC(O)CO (stereo not drawn) [3-isopentyloxy-1,2 propanediol]
2 | 4.18 | CC(C)CCC(C)(O)C#CC(C)(O)CCC(C)C (stereo not drawn) [Surfynol DF 110 D, 2,5,8,11-tetramethyl-6-dodecyne-5,8-diol]
3 | -0.12 | C=C(C)C(=O)OCC(O)CO (stereo not drawn) [glycerin 1-methacrylate]

same assay, conditions: value defined by OECD Test Guideline 107

Row | SMILES | water-octanol distribution coefficient (log P)
4 | CCCCC(O)CO (stereo not drawn) [1,2-hexanediol] | 0.7
5 | CCCCCCCC(O)CCCC(=O)OCC(O)CO (stereo not drawn) [5-hydroxydodecanoate 2,3-dihydroxypropyl] | 2.15

Other lines, results leading:

Row | water-octanol distribution coefficient (log P) | SMILES
6 | 1.59 | CCCC(=O)OCC(O)COC(=O)CCC [1,3-dibutyrin]
7 | 1.73 | CCCCC(CC)C(=O)OCC(O)CO (stereo not drawn) [2-ethylhexanoate 2,3-dihydroxypropyl]
8 | −0.21 | CCCC(=O)OCC(O)CO (stereo not drawn) [Example 1-butyrine, 1-butyrine]
9 | 0.85 | CCCCCC(=O)OCC(O)CO (stereo not drawn) [α-monocaproin]
